The text below walks through data of patent US8883781B2, “Thienopyrimidines useful as modulators of ion channels” (Vertex Pharmaceuticals Incorporated, priority 2006, dated 2014).

Like-named read-outs stand apart in the source and are kept apart here.

Assay [1] addresses T1, NaV1.8 (Homo sapiens, UniProt Q9Y5Y9). The experiment in a line: Activity against NaV 1.8 channel (Table 4). Type of assay: cell-based. The procedure: Compounds of the invention are useful as antagonists of voltage-gated sodium ion channels. Antagonist properties of test compounds were assessed as follows. Cells expressing the NaV of interest were placed into microtiter plates. After an incubation period, the cells were stained with fluorescent dyes sensitive to the transmembrane potential. The test compounds were added to the microtiter plate. The cells were stimulated with either a chemical or electrical means to evoke a NaV dependent membrane potential change from unblocked channels, which was detected and measured with trans-membrane potential-sensitive dyes. Antagonists were detected as a decreased membrane potential response to the stimulus. The optical membrane potential assay utilized voltage-sensitive FRET sensors described by Gonzalez and Tsien (See, Gonzalez, J. E. and R. Y. Tsien (1995) “Voltage sensing by fluorescence resonance energy transfer in single cells” Biophys J 69(4):1272-80, and Gonzalez, J. E. and R. Y. Tsien (1997) “Improved indicators of cell membrane potential that use fluorescence resonance energy transfer” Chem Biol 4(4): 269-77) in combination with instrumentation for measuring fluorescence change such as the Voltage/Ion Probe Reader (VIPR®) (See, Gonzalez, J. E., K. Oades, et al. (1999) “Cell-based assays and instrumentation for screening ion-channel targets” Drug Discov Today 4(9): 431-439).
24 hours before the assay on VIPR, CHO cells endogenously expressing a NaV 1.2 type voltage-gated NaV are seeded in 96-well poly-lysine coated plates at 60,000 cells per well. Other subtypes are performed in an analogous mode in a cell line expressing the NaV of interest.
The following is an example of how NaV1.3 inhibition activity is measured using the optical membrane potential method#2. Other subtypes are performed in an analogous mode in a cell line expressing the NaV of interest.
HEK293 cells stably expressing NaV1.3 are plated into 96-well microtiter plates. After an appropriate incubation period, the cells are stained with the voltage sensitive dyes CC2-DMPE/DiSBAC2(3) as follows.
Patch clamp electrophysiology was used to assess the efficacy and selectivity of sodium channel blockers in dorsal root ganglion neurons. Rat neurons were isolated from the dorsal root ganglions and maintained in culture for 2 to 10 days in the presence of NGF (50 ng/ml) (culture media consisted of NeurobasalA supplemented with B27, glutamine and antibiotics). Small diameter neurons (nociceptors, 8-12 μm in diameter) have been visually identified and probed with fine tip glass electrodes connected to an amplifier (Axon Instruments). The “voltage clamp” mode has been used to assess the compound's IC50 holding the cells at −60 mV. In addition, the “current clamp” mode has been employed to test the efficacy of the compounds in blocking action potential generation in response to current injections. The results of these experiments have contributed to the definition of the efficacy profile of the compounds.
TTX-resistant sodium currents were recorded from DRG somata using the whole-cell variation of the patch clamp technique. Recordings were made at room temperature (˜22° C.) with thick walled borosilicate glass electrodes (WPI; resistance 3-4 MΩ) using an Axopatch 200B amplifier (Axon Instruments). After establishing the whole-cell configuration, approximately 15 minutes were allowed for the pipette solution to equilibrate within the cell before beginning recording. Currents were lowpass filtered between 2-5 kHz and digitally sampled at 10 kHz. Series resistance was compensated 60-70% and was monitored continuously throughout the experiment. The liquid junction potential (−7 mV) between the intracellular pipette solution and the external recording solution was not accounted for in the data analysis. Test solutions were applied to the cells with a gravity driven fast perfusion system (SF-77; Warner Instruments). […]

For assay [2] the following is noted: human, in vivo; cited from earlier work.
The target of the next assay is NaV1.3 (Homo sapiens, UniProt Q9NY46). Particulars: read-out: TTX IC50; cited from earlier work.
Another assay addresses NaV1.2 (Homo sapiens, UniProt Q99250). Particulars: read-out: TTX IC50; cited from earlier work.
The next assay addresses NaV1.6 (Homo sapiens, UniProt Q9UQD0). Particulars: read-out: TTX IC50; cited from earlier work.
Assay [3] concerns the target T1, NaV1.8. Particulars: read-out: TTX IC50; cited from earlier work.
In the next assay the target is NaV1.1 (Homo sapiens, UniProt P35498). Particulars: read-out: TTX IC50; cited from earlier work.
The target in the next assay is NaV1.9 (Homo sapiens, UniProt Q9UI33). Particulars: read-out: TTX IC50; cited from earlier work.

Chain of NaV1.2 (Q99250 whole entry, looked up): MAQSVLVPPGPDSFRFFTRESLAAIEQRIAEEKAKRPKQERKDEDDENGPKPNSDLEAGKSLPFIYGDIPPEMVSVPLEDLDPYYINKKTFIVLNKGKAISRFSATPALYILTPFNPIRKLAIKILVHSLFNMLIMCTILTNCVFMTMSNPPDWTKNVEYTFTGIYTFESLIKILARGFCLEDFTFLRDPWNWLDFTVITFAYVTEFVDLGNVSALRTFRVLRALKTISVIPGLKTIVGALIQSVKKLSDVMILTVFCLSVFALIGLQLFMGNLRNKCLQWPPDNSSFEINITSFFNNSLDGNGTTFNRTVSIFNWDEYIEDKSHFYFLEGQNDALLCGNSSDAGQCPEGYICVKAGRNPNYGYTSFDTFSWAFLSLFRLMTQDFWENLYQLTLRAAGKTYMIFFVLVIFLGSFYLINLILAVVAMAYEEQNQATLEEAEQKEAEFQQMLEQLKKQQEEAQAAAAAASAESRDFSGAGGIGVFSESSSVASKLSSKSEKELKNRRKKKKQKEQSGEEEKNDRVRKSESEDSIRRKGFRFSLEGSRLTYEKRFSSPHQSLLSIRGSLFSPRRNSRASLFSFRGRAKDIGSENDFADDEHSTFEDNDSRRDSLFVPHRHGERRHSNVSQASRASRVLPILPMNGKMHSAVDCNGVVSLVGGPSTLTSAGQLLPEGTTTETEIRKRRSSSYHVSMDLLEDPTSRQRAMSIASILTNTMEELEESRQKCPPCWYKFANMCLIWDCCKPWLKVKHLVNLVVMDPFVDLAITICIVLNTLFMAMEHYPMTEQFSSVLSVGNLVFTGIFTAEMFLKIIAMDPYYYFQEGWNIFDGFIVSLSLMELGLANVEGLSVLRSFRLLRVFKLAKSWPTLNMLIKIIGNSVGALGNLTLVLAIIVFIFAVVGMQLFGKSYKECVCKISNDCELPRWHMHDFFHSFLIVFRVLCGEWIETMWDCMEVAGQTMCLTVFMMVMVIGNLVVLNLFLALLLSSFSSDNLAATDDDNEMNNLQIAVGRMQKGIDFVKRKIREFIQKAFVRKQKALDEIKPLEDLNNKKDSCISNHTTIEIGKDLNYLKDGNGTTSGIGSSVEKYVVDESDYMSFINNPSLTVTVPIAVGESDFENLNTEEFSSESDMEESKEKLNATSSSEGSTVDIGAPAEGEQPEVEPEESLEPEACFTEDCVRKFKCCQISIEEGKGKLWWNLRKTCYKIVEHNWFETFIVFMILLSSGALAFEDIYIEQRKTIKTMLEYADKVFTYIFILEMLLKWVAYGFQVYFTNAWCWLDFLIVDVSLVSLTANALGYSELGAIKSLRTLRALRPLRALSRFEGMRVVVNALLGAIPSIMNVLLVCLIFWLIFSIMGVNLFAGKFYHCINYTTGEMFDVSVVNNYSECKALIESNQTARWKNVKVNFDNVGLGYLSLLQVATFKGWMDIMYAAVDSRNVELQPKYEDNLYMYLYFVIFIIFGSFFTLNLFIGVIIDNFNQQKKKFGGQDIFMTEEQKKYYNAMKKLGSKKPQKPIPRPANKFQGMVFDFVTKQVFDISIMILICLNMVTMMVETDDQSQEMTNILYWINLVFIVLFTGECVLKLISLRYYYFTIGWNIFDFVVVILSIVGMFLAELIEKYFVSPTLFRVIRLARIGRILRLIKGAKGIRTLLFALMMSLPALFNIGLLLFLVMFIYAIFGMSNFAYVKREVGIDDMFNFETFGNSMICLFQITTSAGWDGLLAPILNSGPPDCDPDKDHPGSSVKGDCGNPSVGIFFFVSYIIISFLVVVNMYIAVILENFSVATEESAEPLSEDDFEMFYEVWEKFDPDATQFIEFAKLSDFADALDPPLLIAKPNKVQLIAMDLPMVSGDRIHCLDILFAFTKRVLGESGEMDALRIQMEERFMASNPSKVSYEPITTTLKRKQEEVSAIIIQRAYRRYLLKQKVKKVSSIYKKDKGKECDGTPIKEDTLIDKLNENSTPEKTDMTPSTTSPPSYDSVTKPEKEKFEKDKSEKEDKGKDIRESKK
T1 sequence (Q9Y5Y9 whole entry, looked up): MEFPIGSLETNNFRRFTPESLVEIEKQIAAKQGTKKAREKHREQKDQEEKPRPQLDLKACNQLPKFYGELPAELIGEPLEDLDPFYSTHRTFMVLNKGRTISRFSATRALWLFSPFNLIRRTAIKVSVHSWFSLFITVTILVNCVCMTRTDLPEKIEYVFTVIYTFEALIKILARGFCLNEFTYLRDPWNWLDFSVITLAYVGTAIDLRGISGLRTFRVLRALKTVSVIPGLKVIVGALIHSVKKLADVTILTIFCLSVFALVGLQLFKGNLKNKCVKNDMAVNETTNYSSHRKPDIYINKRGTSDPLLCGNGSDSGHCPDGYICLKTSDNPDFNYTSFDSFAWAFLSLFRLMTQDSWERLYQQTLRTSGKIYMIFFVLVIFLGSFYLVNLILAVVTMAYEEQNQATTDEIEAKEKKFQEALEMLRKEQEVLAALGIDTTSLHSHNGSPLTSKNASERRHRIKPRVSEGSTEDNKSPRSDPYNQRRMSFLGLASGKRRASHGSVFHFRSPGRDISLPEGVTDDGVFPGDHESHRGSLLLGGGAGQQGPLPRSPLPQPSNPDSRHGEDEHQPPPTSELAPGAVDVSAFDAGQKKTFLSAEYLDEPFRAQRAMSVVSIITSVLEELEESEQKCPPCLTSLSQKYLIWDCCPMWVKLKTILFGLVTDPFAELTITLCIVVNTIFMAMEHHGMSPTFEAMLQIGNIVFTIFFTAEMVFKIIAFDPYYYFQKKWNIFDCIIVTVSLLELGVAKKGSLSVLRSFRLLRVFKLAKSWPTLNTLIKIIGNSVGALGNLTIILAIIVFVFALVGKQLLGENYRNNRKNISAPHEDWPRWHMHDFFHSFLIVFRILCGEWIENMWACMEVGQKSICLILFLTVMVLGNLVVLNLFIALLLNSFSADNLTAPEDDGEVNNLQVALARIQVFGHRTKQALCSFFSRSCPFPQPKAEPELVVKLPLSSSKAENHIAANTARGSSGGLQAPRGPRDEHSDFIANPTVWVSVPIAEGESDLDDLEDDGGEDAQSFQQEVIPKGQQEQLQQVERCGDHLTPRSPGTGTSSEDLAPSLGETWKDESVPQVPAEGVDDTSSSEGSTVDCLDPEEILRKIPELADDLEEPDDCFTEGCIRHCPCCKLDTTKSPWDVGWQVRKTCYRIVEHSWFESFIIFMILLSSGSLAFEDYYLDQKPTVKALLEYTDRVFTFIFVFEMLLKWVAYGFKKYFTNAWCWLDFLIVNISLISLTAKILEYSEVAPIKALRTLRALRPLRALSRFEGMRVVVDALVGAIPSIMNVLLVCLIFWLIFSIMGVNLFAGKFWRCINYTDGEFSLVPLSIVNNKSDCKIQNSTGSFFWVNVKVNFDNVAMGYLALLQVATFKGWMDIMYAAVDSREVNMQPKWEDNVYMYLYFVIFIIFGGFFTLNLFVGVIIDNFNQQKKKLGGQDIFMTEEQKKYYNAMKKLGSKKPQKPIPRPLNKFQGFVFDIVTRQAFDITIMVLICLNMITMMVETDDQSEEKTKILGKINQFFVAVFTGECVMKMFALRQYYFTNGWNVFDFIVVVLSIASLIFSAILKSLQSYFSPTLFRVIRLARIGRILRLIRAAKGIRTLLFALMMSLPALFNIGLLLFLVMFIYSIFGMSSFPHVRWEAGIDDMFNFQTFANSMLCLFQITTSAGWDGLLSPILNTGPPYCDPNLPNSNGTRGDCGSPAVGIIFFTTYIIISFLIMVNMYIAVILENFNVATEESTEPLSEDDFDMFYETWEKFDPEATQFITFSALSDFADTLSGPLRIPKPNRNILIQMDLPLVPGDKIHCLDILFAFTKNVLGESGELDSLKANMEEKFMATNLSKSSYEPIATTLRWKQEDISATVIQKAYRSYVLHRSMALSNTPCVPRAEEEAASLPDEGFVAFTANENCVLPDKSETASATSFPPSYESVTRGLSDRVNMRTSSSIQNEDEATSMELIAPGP

In the case of `Oc1ccccc1-c1nc(N2CCOCC2)c2sc(-c3ccc(F)cc3)cc2n1` [Compound 1, 2-(6-(4-Fluorophenyl)-4-morpholinothieno[3,2-d]pyrimidin-2-yl)phenol], the IC50 at NaV1.8 [1] is above 20000 nM.

Regarding `Cc1cc(C)c2c(n1)sc1c(N3CCOCC3)nc(-c3ccccc3O)nc12` [Compound 2], at NaV1.8 [1], the IC50 was above 20000 nM.

As to `Cc1csc2nc(-c3ccccc3O)nc(N3CCN(C(=O)OCC(C)C)CC3)c12` [Compound 4, Isobutyl 4-(2-(2-hydroxyphenyl)-5-methylthieno[2,3-d]pyrimidin-4-yl)piperazine-1-carboxylate], at NaV1.8 [1], the IC50 was above 20000 nM.

For `CCCCS(=O)(=O)N1CCN(c2nc(-c3ccccc3O)nc3scc(C)c23)CC1` [Compound 5, 2-(4-(4-(butylsulfonyl)piperazin-1-yl)-5-methylthieno[2,3-d]pyrimidin-2-yl)phenol], the IC50 on NaV1.8 [1] is above 20000 nM.

For `Cc1csc2nc(-c3ccccc3O)nc(N3CCC(NC(=O)OCC(C)C)CC3)c12` [Compound 6, Isobutyl 1-(2-(2-hydroxyphenyl)-5-methylthieno[2,3-d]pyrimidin-4-yl)piperidin-4-ylcarbamate], at NaV1.8 [1], the IC50 is above 20000 nM.

For `CC(C)COC(=O)N1CCN(c2nc(-c3ccccc3O)nc3ccsc23)CC1` [Compound 7, Isobutyl 4-(2-(2-hydroxyphenyl)thieno[3,2-d]pyrimidin-4-yl)piperazine-1-carboxylate], the IC50 on NaV1.8 [1] is below 5000 nM.

For the molecule `CC(C)COC(=O)NC1CCN(c2nc(-c3ccccc3O)nc3ccsc23)CC1` [Compound 8, Isobutyl 1-(2-(2-hydroxyphenyl)thieno[3,2-d]pyrimidin-4-yl)piperidin-4-ylcarbamate], the IC50 on NaV1.8 [1] is below 5000 nM.

For the molecule `NCC1(CC(=O)O)CCCCC1` [Gabapentin], the “patients in whom it works” value in assay [2] is recorded as 60%.

As for `NC1=N[C@H](O)[C@H]2[C@H]3O[C@]4(O)O[C@@H]([C@@H](O)[C@@]2(N1)[C@@H]4O)[C@]3(O)CO` [TTX, tetrodotoxin], the IC50 on NaV1.3 is 15 nM; on NaV1.2 it was 10 nM; on NaV1.6 it was 6 nM; on NaV1.8 [3] it was above 50000 nM; on NaV1.1, 10 nM; at NaV1.9 it was 1000 nM.
